Toxic doses and inconclusive results are not listed. Cut-off read from the data, not from the text of the source: active = T/C of 150% or more; inactive = T/C below 125%.
Tested on: L1210 leukemia ip in BDF1 mice, survival T/C
Assay: NCI In Vivo Anticancer Drug Screen. Data for tumor model L1210 Leukemia (intraperitoneal) in B6D2F1 (BDF1) mice
Conditions: endpoint: mean survival time, higher = longer survival
How it was run: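 Ratio derived from survival: compound-dosed mice over vehicle-dosed mice, all bearing a transplantable tumor.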

[1] = dose: 400.0 mg/kg/injection, schedule: Q04DX003 (ip), vehicle: saline
[2] = dose: 100.0 mg/kg/injection, schedule: Q04DX003 (ip), vehicle: saline
[3] = dose: 200.0 mg/kg/injection, schedule: Q04DX003 (ip), vehicle: saline
[4] = dose: 100.0 mg/kg/injection, schedule: Q01DX001 (ip), vehicle: saline
[5] = dose: 200.0 mg/kg/injection, schedule: Q01DX001 (ip), vehicle: saline
[6] = dose: 400.0 mg/kg/injection, schedule: Q01DX001 (ip), vehicle: saline

Measured: T/C

NC(N)=NO
inactive: dose: 9.37 mg/kg/injection, schedule: Q01DX009 (ip), vehicle: saline 107 % of control | dose: 18.75 mg/kg/injection, schedule: Q01DX009 (ip), vehicle: saline 107 % of control | dose: 37.5 mg/kg/injection, schedule: Q01DX009 (ip), vehicle: saline 109 % of control | dose: 75.0 mg/kg/injection, schedule: Q01DX009 (ip), vehicle: saline 111 % of control | dose: 100.0 mg/kg/injection, schedule: Q01DX Z (ip), vehicle: saline 115 % of control | dose: 144.0 mg/kg/injection, schedule: Q03HX024 (ip), vehicle: saline 123 % of control | dose: 150.0 mg/kg/injection, schedule: Q01DX Z (ip), vehicle: other 112 % of control | dose: 217.0 mg/kg/injection, schedule: Q03HX024 (ip), vehicle: saline 117 % of control | dose: 300.0 mg/kg/injection, schedule: Q01DX Z (ip), vehicle: other 121 % of control | dose: 300.0 mg/kg/injection, schedule: Q01DX Z (ip), vehicle: saline 122 % of control | dose: 325.0 mg/kg/injection, schedule: Q03HX024 (ip), vehicle: saline 122 % of control | [1] 104 % of control | dose: 487.0 mg/kg/injection, schedule: Q03HX024 (ip), vehicle: saline 113 % of control | dose: 600.0 mg/kg/injection, schedule: Q04DX003 (ip), vehicle: saline 91 % of control

CC(=O)OC1OC(COC(=O)c2ccc([N+](=O)[O-])cc2)C(NC(=O)C(F)(F)F)C1OC(C)=O (configuration not stated)
inactive: [2] 90 % of control | [3] 96 % of control | [1] 95 % of control

CC(=O)CC(=O)Nc1ccc(Cc2ccccc2)cc1
inactive: [4] 93 % of control | [5] 94 % of control | [6] 109 % of control

CSc1ccccc1N.[Cl][Cu][Cl]
inactive: dose: 5.0 mg/kg/injection, schedule: Q01DX001 (ip), vehicle: saline 103 % of control | dose: 10.0 mg/kg/injection, schedule: Q01DX001 (ip), vehicle: saline 115 % of control

Cc1nc(N=C(N)N)nc2ccc(Cl)cc12
inactive: dose: 18.8 mg/kg/injection, schedule: Q04DX003 (ip), vehicle: saline 96 % of control | dose: 37.5 mg/kg/injection, schedule: Q04DX003 (ip), vehicle: saline 105 % of control | dose: 75.0 mg/kg/injection, schedule: Q01DX001 (ip), vehicle: saline 101 % of control | dose: 75.0 mg/kg/injection, schedule: Q04DX003 (ip), vehicle: saline 100 % of control

CC(=O)NC1C(OC(C)=O)OC(COC(c2ccccc2)(c2ccccc2)c2ccccc2)C(OC(C)=O)C1OC(C)=O (configuration not stated)
inactive: [4] 108 % of control | [5] 96 % of control | [6] 96 % of control

CCCCCCCCCOCCOCCOCCN
inactive: dose: 12.0 mg/kg/injection, schedule: Q01DX009 (ip), vehicle: Klucel (hydroxypropylcellulose) (HPC) 99 % of control | dose: 25.0 mg/kg/injection, schedule: Q01DX009 (ip), vehicle: Klucel (hydroxypropylcellulose) (HPC) 100 % of control | dose: 25.0 mg/kg/injection, schedule: Q04DX003 (ip), vehicle: saline 102 % of control | dose: 50.0 mg/kg/injection, schedule: Q01DX009 (ip), vehicle: Klucel (hydroxypropylcellulose) (HPC) 100 % of control | dose: 50.0 mg/kg/injection, schedule: Q04DX003 (ip), vehicle: saline 96 % of control | [2] 86 % of control

O=c1[nH]cnc2c1cnn2-c1ccccc1
inactive: dose: 100.0 mg/kg/injection, schedule: Q01DX009 (ip), vehicle: Klucel (hydroxypropylcellulose) (HPC) 104 % of control | dose: 200.0 mg/kg/injection, schedule: Q01DX009 (ip), vehicle: Klucel (hydroxypropylcellulose) (HPC) 104 % of control | dose: 400.0 mg/kg/injection, schedule: Q01DX009 (ip), vehicle: Klucel (hydroxypropylcellulose) (HPC) 112 % of control

O=C(CSc1ccc([N+](=O)[O-])cn1)c1ccc(Br)cc1
inactive: [2] 102 % of control | [3] 98 % of control | [1] 102 % of control

O=C(O)CC(NC(=O)COc1ccc(F)cc1)C(=O)O (configuration not stated)
inactive: dose: 100.0 mg/kg/injection, schedule: Q04DX002 (ip), vehicle: Klucel (hydroxypropylcellulose) (HPC) 89 % of control | dose: 200.0 mg/kg/injection, schedule: Q04DX002 (ip), vehicle: Klucel (hydroxypropylcellulose) (HPC) 89 % of control | dose: 400.0 mg/kg/injection, schedule: Q04DX002 (ip), vehicle: Klucel (hydroxypropylcellulose) (HPC) 96 % of control

O=c1oc2ccccc2c(=S)n1-c1ccccc1
inactive: [2] 105 % of control | [3] 94 % of control | [1] 91 % of control

Cc1cc(Cl)cc(C)c1OC(=O)Nc1ccccc1C(F)(F)F
inactive: dose: 100.0 mg/kg/injection, schedule: Q01DX009 (ip), vehicle: saline 98 % of control | dose: 200.0 mg/kg/injection, schedule: Q01DX009 (ip), vehicle: saline 91 % of control | dose: 400.0 mg/kg/injection, schedule: Q01DX009 (ip), vehicle: saline 112 % of control

CC1CCCC1Sc1ccccc1 (configuration not stated)
inactive: [4] 91 % of control | dose: 100.0 mg/kg/injection, schedule: Q01DX009 (ip), vehicle: acetone 99 % of control | [5] 91 % of control | dose: 200.0 mg/kg/injection, schedule: Q01DX009 (ip), vehicle: acetone 106 % of control | [6] 93 % of control | dose: 400.0 mg/kg/injection, schedule: Q01DX009 (ip), vehicle: acetone 92 % of control

CC1(C)C2CC3C(=CCC4C(=O)C5CC=C6C(CC7CC6C7(C)C)C5C(=O)C43)C1C2 (configuration not stated)
inactive: dose: 100.0 mg/kg/injection, schedule: Q01DX001 (ip), vehicle: Klucel (hydroxypropylcellulose) (HPC) 103 % of control | dose: 200.0 mg/kg/injection, schedule: Q01DX001 (ip), vehicle: Klucel (hydroxypropylcellulose) (HPC) 93 % of control | dose: 400.0 mg/kg/injection, schedule: Q01DX001 (ip), vehicle: Klucel (hydroxypropylcellulose) (HPC) 93 % of control

ClCC1CNC(c2ccccc2)O1 (configuration not stated)
inactive: dose: 12.5 mg/kg/injection, schedule: Q04DX003 (ip), vehicle: saline with Tween-80 96 % of control | dose: 25.0 mg/kg/injection, schedule: Q04DX003 (ip), vehicle: saline with Tween-80 101 % of control | dose: 50.0 mg/kg/injection, schedule: Q04DX003 (ip), vehicle: saline with Tween-80 98 % of control | dose: 100.0 mg/kg/injection, schedule: Q01DX001 (ip), vehicle: carboxymethylcellulose (CMC) 95 % of control | dose: 200.0 mg/kg/injection, schedule: Q01DX001 (ip), vehicle: carboxymethylcellulose (CMC) 93 % of control | dose: 400.0 mg/kg/injection, schedule: Q01DX001 (ip), vehicle: carboxymethylcellulose (CMC) 101 % of control

NNC12CCC(c3ccccc31)c1ccccc12
inactive: dose: 100.0 mg/kg/injection, schedule: Q04DX003 (ip), vehicle: saline sonified 96 % of control | dose: 200.0 mg/kg/injection, schedule: Q04DX003 (ip), vehicle: saline sonified 101 % of control
